Experimental data from patent US20240307353A1, “JAK1 PATHWAY INHIBITORS FOR THE TREATMENT OF ASTHMA” (Incyte Corporation, priority 2023, published 2024).

Columns and labels:
[1] = biological target: human JAK1 (a.a. 837-1142) (Homo sapiens, UniProt P23458); assay: In vitro JAK kinase assay (HTRF), JAK1; assay type: biochemical; conditions: 1 mM ATP
Description: (§1) The catalytic activity of JAK1, JAK2 or JAK3 was assayed by measuring the phosphorylation of a biotinylated peptide. The phosphorylated peptide was detected by homogenous time resolved fluorescence (HTRF). […] Reactions were carried out at room temperature for 1 hour and then stopped with 20 μL 45 mM EDTA, 300 nM SA-APC, 6 nM Eu-Py20 in assay buffer (Perkin Elmer, Boston, MA). Binding to the Europium labeled antibody took place for 40 minutes and HTRF signal was measured on a Fusion plate reader (Perkin Elmer, Boston, MA).

JAK2 (a.a. 828-1132) = JAK2 (a.a. 828-1132) (Homo sapiens (Human), UniProt O60674); assay: In vitro JAK kinase assay (HTRF), JAK2 versus JAK1; assay type: biochemical; conditions: IC50 ratio, 1 mM ATP
JAK2 (a.a. 828-1132), sequence (O60674 828-1132): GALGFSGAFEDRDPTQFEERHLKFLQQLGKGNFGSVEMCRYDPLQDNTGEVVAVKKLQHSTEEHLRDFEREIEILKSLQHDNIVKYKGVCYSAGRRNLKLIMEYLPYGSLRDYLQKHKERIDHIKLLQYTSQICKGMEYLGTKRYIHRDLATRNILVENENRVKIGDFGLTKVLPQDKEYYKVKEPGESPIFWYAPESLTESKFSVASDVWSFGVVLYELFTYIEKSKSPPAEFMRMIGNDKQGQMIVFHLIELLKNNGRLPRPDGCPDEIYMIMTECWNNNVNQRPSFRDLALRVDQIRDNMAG
Description: as §1

IC50 [1]	JAK2/JAK1 (JAK2 (a.a. 828-1132))	SMILES
< 10 nM	>10	CCNCc1cc(O[C@H]2CC[C@@H](N3CC(CC#N)(n4cc(-c5ncnc6[nH]ccc56)cn4)C3)CC2)nc(C(F)(F)F)c1 [Compound 19, {1-(cis-4-{[4-[(ethylamino)methyl]-6-(trifluoromethyl)pyridin-2-yl]oxy}cyclohexyl)-3-[4-(7H-pyrrolo[2,3-d]pyrimidin-4-yl)-1H-pyrazol-1-yl]azetidin-3-yl}acetonitrile]
< 10 nM	>10	N#CC[C@]1(n2cc(-c3ncnc4[nH]ccc34)cn2)C[C@H](N2CCC(Oc3cc(CCO)cc(C(F)(F)F)n3)CC2)C1 [Compound 26, {trans-3-(4-{[4-(2-hydroxyethyl)-6-(trifluoromethyl)pyridin-2-yl]oxy}piperidin-1-yl)-1-[4-(7H-pyrrolo[2,3-d]pyrimidin-4-yl)-1H-pyrazol-1-yl]cyclobutyl}acetonitrile]
< 10 nM	>10	N#CCC1(n2cc(-c3ncnc4[nH]ccc34)cn2)CN(C2CCN(C(=O)c3ccnc(C(F)(F)F)n3)CC2)C1 [Compound 3, [3-[4-(7H-pyrrolo[2,3-d]pyrimidin-4-yl)-1H-pyrazol-1-yl]-1-(1-{[2-(trifluoromethyl)pyrimidin-4-yl]carbonyl}piperidin-4-yl)azetidin-3-yl]acetonitrile]
< 10 nM	>10	N#CCC(CN1CCN(C(=O)c2ccc(C#N)cc2F)CC1)n1ccc(-c2ncnc3[nH]ccc23)c1 (centres unmarked) [Compound 9, 4-[(4-{3-cyano-2-[3-(7H-pyrrolo[2,3-d]pyrimidin-4-yl)-1H-pyrrol-1-yl]propyl}piperazin-1-yl)carbonyl]-3-fluorobenzonitrile]
< 10 nM	>10	CC(C)(O)c1cc(O[C@H]2CC[C@@H](N3CC(CC#N)(n4cc(-c5ncnc6[nH]ccc56)cn4)C3)CC2)nc(C(F)(F)F)c1 [Compound 20, {1-(cis-4-{[4-(1-hydroxy-1-methylethyl)-6-(trifluoromethyl)pyridin-2-yl]oxy}cyclohexyl)-3-[4-(7H-pyrrolo[2,3-d]pyrimidin-4-yl)-1H-pyrazol-1-yl]azetidin-3-yl}acetonitrile]
< 10 nM	>10	C[C@@H](O)CNCc1cc(OC2CCN([C@H]3C[C@](CC#N)(n4cc(-c5ncnc6[nH]ccc56)cn4)C3)CC2)nc(C(F)(F)F)c1 [Compound 24, {trans-3-(4-{[4-({[(2R)-2-hydroxypropyl]amino}methyl)-6-(trifluoromethyl)pyridin-2-yl]oxy}piperidin-1-yl)-1-[4-(7H-pyrrolo[2,3-d]pyrimidin-4-yl)-1H-pyrazol-1-yl]cyclobutyl}acetonitrile]
< 10 nM	>10	C[C@H](NC(=O)c1cc(F)c(N2CC(CC#N)(n3cc(-c4ncnc5[nH]ccc45)cn3)C2)cc1F)C(F)(F)F [Compound 16, 4-{3-(cyanomethyl)-3-[4-(7H-pyrrolo[2,3-d]pyrimidin-4-yl)-1H-pyrazol-1-yl]azetidin-1-yl}-2,5-difluoro-N-[(1S)-2,2,2-trifluoro-1-methylethyl]benzamide]
< 10 nM	>10	N#CCC1(n2cc(-c3ncnc4[nH]ccc34)cn2)CN([C@H]2CC[C@@H](Oc3cc(CN4CC[C@H](O)C4)cc(C(F)(F)F)n3)CC2)C1 [Compound 22, {1-(cis-4-{[4-{[(3S)-3-hydroxypyrrolidin-1-yl]methyl}-6-(trifluoromethyl)pyridin-2-yl]oxy}cyclohexyl)-3-[4-(7H-pyrrolo[2,3-d]pyrimidin-4-yl)-1H-pyrazol-1-yl]azetidin-3-yl}acetonitrile]
< 10 nM	>10	N#CCC(C1CCN(c2cccc(Cl)n2)C1)n1cc(-c2ncnc3[nH]ccc23)cn1 (single isomer, unassigned) [Compound 6, 3-[1-(6-chloropyridin-2-yl)pyrrolidin-3-yl]-3-[4-(7H-pyrrolo[2,3-d]pyrimidin-4-yl)-1H-pyrazol-1-yl]propanenitrile]
< 10 nM	>10	N#CCC(C1CCN(c2nc3cccnc3o2)C1)n1cc(-c2ncnc3[nH]ccc23)cn1 (centres unmarked) [Compound 7, 3-(1-[1,3]oxazolo[5,4-b]pyridin-2-ylpyrrolidin-3-yl)-3-[4-(7H-pyrrolo[2,3-d]pyrimidin-4-yl)-1H-pyrazol-1-yl]propanenitrile]
< 100 nM	>10	C[C@@H](O)c1nc2cnc3ccsc3c2n1[C@H]1CC[C@H](CC#N)OC1 [Compound 5, ((2R,5S)-5-{2-[(1R)-1-hydroxyethyl]-1H-imidazo[4,5-d]thieno[3,2-b]pyridin-1-yl}tetrahydro-2H-pyran-2-yl)acetonitrile]
< 10 nM	>10	N#CC[C@]1(n2cc(-c3ncnc4[nH]ccc34)cn2)C[C@H](N2CCC(Oc3cc(CN4CCC[C@@H]4CO)cc(C(F)(F)F)n3)CC2)C1 [Compound 13, {trans-3-(4-{[4-{[(2R)-2-(hydroxymethyl)pyrrolidin-1-yl]methyl}-6-(trifluoromethyl)pyridin-2-yl]oxy}piperidin-1-yl)-1-[4-(7H-pyrrolo[2,3-d]pyrimidin-4-yl)-1H-pyrazol-1-yl]cyclobutyl}acetonitrile]
< 10 nM	>10	N#CCC(CN1CCN(C(=O)c2ccc(C#N)cc2F)CC1)n1cc(-c2ncnc3[nH]ccc23)cn1 (centres unmarked) [Compound 8, 4-[(4-{3-cyano-2-[4-(7H-pyrrolo[2,3-d]pyrimidin-4-yl)-1H-pyrazol-1-yl]propyl}piperazin-1-yl)carbonyl]-3-fluorobenzonitrile]
< 10 nM	>10	N#CC[C@]1(n2cc(-c3ncnc4[nH]ccc34)cn2)C[C@H](N2CCN(C(=O)c3ccnc(C(F)(F)F)n3)CC2)C1 [Compound 10, [trans-1-[4-(7H-pyrrolo[2,3-d]pyrimidin-4-yl)-1H-pyrazol-1-yl]-3-(4-{[2-(trifluoromethyl)pyrimidin-4-yl]carbonyl}piperazin-1-yl)cyclobutyl]acetonitrile]
< 10 nM	>10	C[C@H](O)CNCc1cc(OC2CCN([C@H]3C[C@](CC#N)(n4cc(-c5ncnc6[nH]ccc56)cn4)C3)CC2)nc(C(F)(F)F)c1 [Compound 25, {trans-3-(4-{[4-({[(2S)-2-hydroxypropyl]amino}methyl)-6-(trifluoromethyl)pyridin-2-yl]oxy}piperidin-1-yl)-1-[4-(7H-pyrrolo[2,3-d]pyrimidin-4-yl)-1H-pyrazol-1-yl]cyclobutyl}acetonitrile]
< 10 nM	>10	N#CC[C@]1(n2cc(-c3ncnc4[nH]ccc34)cn2)C[C@H](N2CCC(Oc3cc(CN4CCC[C@H]4CO)cc(C(F)(F)F)n3)CC2)C1 [Compound 12, {trans-3-(4-{[4-{[(2S)-2-(hydroxymethyl)pyrrolidin-1-yl]methyl}-6-(trifluoromethyl)pyridin-2-yl]oxy}piperidin-1-yl)-1-[4-(7H-pyrrolo[2,3-d]pyrimidin-4-yl)-1H-pyrazol-1-yl]cyclobutyl}acetonitrile]
< 10 nM	>10	N#CCC1(n2cc(-c3ncnc4[nH]ccc34)cn2)CN([C@H]2CC[C@@H](Oc3cc(CN4CC[C@@H](O)C4)cc(C(F)(F)F)n3)CC2)C1 [Compound 21, {1-(cis-4-{[4-{[(3R)-3-hydroxypyrrolidin-1-yl]methyl}-6-(trifluoromethyl)pyridin-2-yl]oxy}cyclohexyl)-3-[4-(7H-pyrrolo[2,3-d]pyrimidin-4-yl)-1H-pyrazol-1-yl]azetidin-3-yl}acetonitrile]
< 10 nM	>10	N#CC[C@]1(n2cc(-c3ncnc4[nH]ccc34)cn2)C[C@H](N2CCC(Oc3cc(CN4CC(O)C4)cc(C(F)(F)F)n3)CC2)C1 [Compound 11, {trans-3-(4-{[4-[(3-hydroxyazetidin-1-yl)methyl]-6-(trifluoromethyl)pyridin-2-yl]oxy}piperidin-1-yl)-1-[4-(7H-pyrrolo[2,3-d]pyrimidin-4-yl)-1H-pyrazol-1-yl]cyclobutyl}acetonitrile]
< 10 nM	>10	C[C@@H](CO)NCc1cc(OC2CCN([C@H]3C[C@](CC#N)(n4cc(-c5ncnc6[nH]ccc56)cn4)C3)CC2)nc(C(F)(F)F)c1 [Compound 23, {trans-3-(4-{[4-({[(1S)-2-hydroxy-1-methylethyl]amino}methyl)-6-(trifluoromethyl)pyridin-2-yl]oxy}piperidin-1-yl)-1-[4-(7H-pyrrolo[2,3-d]pyrimidin-4-yl)-1H-pyrazol-1-yl]cyclobutyl}acetonitrile]
< 10 nM	>10	N#CCC1(n2cc(-c3ncnc4[nH]ccc34)cn2)CN(C2CCN(C(=O)Nc3ccc(F)cc3C(F)(F)F)CC2)C1 [Compound 2, 4-{3-(Cyanomethyl)-3-[4-(7H-pyrrolo[2,3-d]pyrimidin-4-yl)-1H-pyrazol-1-yl]azetidin-1-yl}-N-[4-fluoro-2-(trifluoromethyl)phenyl]piperidine-1-carboxamide]
< 10 nM	>10	N#CCC1(n2cc(-c3ncnc4[nH]ccc34)cn2)CN(C2CCN(C(=O)c3ccnc(C(F)(F)F)c3F)CC2)C1 [Compound 4, {1-{1-[3-Fluoro-2-(trifluoromethyl)isonicotinoyl]piperidin-4-yl}-3-[4-(7H-pyrrolo[2,3-d]pyrimidin-4-yl)-1H-pyrazol-1-yl]azetidin-3-yl}acetonitrile]
< 10 nM	>10	N#CCC1(n2cc(-c3ncnc4[nH]ccc34)cn2)CN([C@H]2CC[C@@H](Oc3cc(CCO)nc(C(F)(F)F)n3)CC2)C1 [Compound 18, {1-(cis-4-{[6-(2-hydroxyethyl)-2-(trifluoromethyl)pyrimidin-4-yl]oxy}cyclohexyl)-3-[4-(7H-pyrrolo[2,3-d]pyrimidin-4-yl)-1H-pyrazol-1-yl]azetidin-3-yl}acetonitrile]
